Source: PubChem BioAssay AID1221 (NMMLSC, 2008)
The source made the active and inactive calls.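 Rule for the calls: active = summed score of at least 50 from binding left at 10 µM, EC50 band and curve drop size; inactive = the rest.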

target: Estrogen receptor beta (Homo sapiens) (UniProt Q92731); experiment: ERbeta binders displacing fluorescent estradiol, dose response, cell-based, Cos7 ERbeta-GFP, E2-Alexa633, flow cytometry (AID 1221); details: E2-Alexa633 competitive binding
Sequence (Q92731 whole entry, looked up): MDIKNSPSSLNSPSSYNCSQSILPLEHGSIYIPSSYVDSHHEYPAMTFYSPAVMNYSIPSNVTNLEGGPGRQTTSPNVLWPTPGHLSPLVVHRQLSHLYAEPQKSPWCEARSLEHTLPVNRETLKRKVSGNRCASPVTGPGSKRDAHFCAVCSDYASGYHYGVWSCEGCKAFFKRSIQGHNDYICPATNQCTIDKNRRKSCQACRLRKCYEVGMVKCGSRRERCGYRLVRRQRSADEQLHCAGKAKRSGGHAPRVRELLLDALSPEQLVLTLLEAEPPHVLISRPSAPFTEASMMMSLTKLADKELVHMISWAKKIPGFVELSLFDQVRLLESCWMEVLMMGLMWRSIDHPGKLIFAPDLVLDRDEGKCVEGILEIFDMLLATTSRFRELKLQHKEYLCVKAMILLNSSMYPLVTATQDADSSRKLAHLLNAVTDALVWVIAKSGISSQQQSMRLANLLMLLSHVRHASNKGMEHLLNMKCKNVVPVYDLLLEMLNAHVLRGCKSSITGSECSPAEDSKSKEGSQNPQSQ

Row | Structure (SMILES) | EC50
1 | Oc1ccc(-c2nc3ccc4ccccc4c3c3c2CCC3)cc1O | > 10 µM (inactive)

same assay, conditions: E2-Alexa633 competitive binding, at 10 µM (top of the series)

Row | Structure (SMILES) | percent ligand binding remaining
2 | O=C(O)c1ccc2c(c1)C1C(Cl)C(Sc3ccccc3[N+](=O)[O-])CC1C(c1cccc([N+](=O)[O-])c1)N2 (stereo not drawn) | inactive
3 | O=C(Cc1cccs1)Nc1ccc(S(=O)(=O)Nc2ncccn2)cc1 | inactive
4 | CCCCCCNC(=O)c1cc(-c2ccco2)nc2ccccc12 | inactive
5 | C[C@]12CC[C@@H]3c4ccc(O)cc4[C@@H](O)C[C@H]3[C@@H]1CC[C@@H]2O | inactive
6 | Cc1cc(C)cc(OCC(=O)Nc2ccc(N3CCCC3)cc2)c1 | inactive
7 | C[C@H]1CCC[C@@H](O)CCC/C=C/c2cc(O)cc(O)c2C(=O)O1 | inactive
8 | Cc1cc([N+](=O)[O-])c2c(c1C)C1C=CCC1C(c1ccccn1)N2 (stereo not drawn) | inactive
9 | CCC(=O)Oc1ccc(/C(CC)=C(\CC)c2ccc(OC(=O)CC)cc2)cc1 | 32.1%
10 | C/C=C(/C(=C/C)c1ccc(O)cc1)c1ccc(O)cc1 | 45.1%
11 | Brc1cc2c(cc1C1Nc3ccccc3C3C=CCC31)OCO2 (stereo not drawn) | inactive
12 | CC(=O)Nc1ccc(OC(=O)CC2SC(=O)NC2=O)cc1 (stereo not drawn) | inactive
13 | CCNC(=O)c1ccc2c(c1)C1C3CCC(C3)C1C(c1ccccc1)N2 (stereo not drawn) | inactive
14 | COc1ccc(/C=N/NC(=O)c2nc(-c3ccccc3)cc(-c3ccccc3)n2)cc1O | inactive
15 | Oc1ccc(-c2nc(-c3ccc(O)c(O)c3)cs2)cc1 | inactive
16 | N=C1C(c2nc3ccccc3[nH]2)=C(O)CN1c1ccc(CC(=O)O)cc1 | inactive
17 | O=C1/C(=C\c2ccco2)SC(=S)N1c1ccc(O)cc1 | inactive

Row | Structure (SMILES) | percent ligand binding remaining
18 | Cc1nn(-c2ccccc2)c(/N=C/c2ccc(O)cc2)c1-c1ccccc1 | inactive
19 | CC(=O)c1ccc2c(c1)C1C=CCC1C(c1ccc(S(=O)(=O)N3CCOCC3)cc1)N2 (stereo not drawn) | inactive
20 | Cc1cc(C(=O)Nc2sc3c(c2C#N)CCC3)no1 | inactive
21 | COc1nc(-c2ccc(Cl)cc2)ccc1-c1noc(-c2ccco2)n1 | inactive
22 | Cc1cc(C)c2c(c1)NC(c1cc3c(cc1Br)OCO3)C1CC=CC21 (stereo not drawn) | inactive
23 | CCc1nc2sc3ccccc3c(=O)c2c(=O)n1Cc1ccco1 | inactive
24 | COc1cccc(C2Nc3c(F)cc(Br)cc3C3C=CCC32)c1OC (stereo not drawn) | inactive
25 | COc1ccc(NC(=O)C(c2ccccc2)N(C)C(=O)c2ccc(=O)[nH]c2)cc1 (stereo not drawn) | inactive
26 | CCn1c(=NC(=O)c2ccc(N3C(=O)CCC3=O)cc2)sc2c(OC)ccc(OC)c21 | inactive
27 | Cn1ccnc1SCC(=O)Nc1ccc2nc(SCC(=O)NC3CC3)sc2c1 | inactive
28 | COc1ccc(C(=O)N/N=C(\C)c2ccc3c(c2)C2C=CCC2C(c2ccccc2)N3)cc1 (stereo not drawn) | 32.7%
29 | Cc1nnc(SCC(=O)NC(=O)NCc2ccco2)n1Cc1ccccc1 | inactive
30 | Cc1ccc(-n2c(=O)c(C#N)cc3c(=O)n4cccc(C)c4nc32)cc1 | inactive
31 | O=S(=O)(NCCc1csc(-c2cccnc2)n1)c1ccc(Cl)s1 | inactive
32 | COc1cccc(NS(=O)(=O)c2ccc3c(c2)C2C=CCC2C(c2ccc(C(=O)O)cc2)N3)c1 (stereo not drawn) | inactive
33 | O=C1NC(c2ccc(Br)cc2)Nc2sc3c(c21)CCC3 (stereo not drawn) | inactive
